The text below walks through data of ChEMBL document CHEMBL5036327, “Systematic Optimization of Potent and Orally Bioavailable Purine Scaffold as a Dual Inhibitor of Toll-Like Receptors 7 and 9” (J Med Chem, 2021).

Broadly, the IC50 is the midpoint of a concentration-inhibition curve. By Papp A→B is commonly meant how fast a substance crosses the layer from the apical side. For orientation: Papp B→A means the apparent permeability from the basolateral to the apical side of a cell layer. As a reminder, the efflux ratio is a quotient of directional permeabilities that is used to spot active efflux. Broadly, the amount remaining is what is left of the initial amount, in per cent. As a reminder, the half-life is the time in which the quantity being followed falls by half. By microsomal CLint is commonly meant a measure of how fast metabolising enzymes remove a compound, apart from limits set by blood flow. Broadly, the solubility is the concentration that dissolves in the medium under given conditions. A lower solubility goes with a poorly soluble substance.

In brackets after ≈: the same amount, converted by molar mass.

The target in data set [1] is T1, Toll-like receptor 7 (Homo sapiens, UniProt Q9NYK1).
T1 sequence (Q9NYK1 whole entry): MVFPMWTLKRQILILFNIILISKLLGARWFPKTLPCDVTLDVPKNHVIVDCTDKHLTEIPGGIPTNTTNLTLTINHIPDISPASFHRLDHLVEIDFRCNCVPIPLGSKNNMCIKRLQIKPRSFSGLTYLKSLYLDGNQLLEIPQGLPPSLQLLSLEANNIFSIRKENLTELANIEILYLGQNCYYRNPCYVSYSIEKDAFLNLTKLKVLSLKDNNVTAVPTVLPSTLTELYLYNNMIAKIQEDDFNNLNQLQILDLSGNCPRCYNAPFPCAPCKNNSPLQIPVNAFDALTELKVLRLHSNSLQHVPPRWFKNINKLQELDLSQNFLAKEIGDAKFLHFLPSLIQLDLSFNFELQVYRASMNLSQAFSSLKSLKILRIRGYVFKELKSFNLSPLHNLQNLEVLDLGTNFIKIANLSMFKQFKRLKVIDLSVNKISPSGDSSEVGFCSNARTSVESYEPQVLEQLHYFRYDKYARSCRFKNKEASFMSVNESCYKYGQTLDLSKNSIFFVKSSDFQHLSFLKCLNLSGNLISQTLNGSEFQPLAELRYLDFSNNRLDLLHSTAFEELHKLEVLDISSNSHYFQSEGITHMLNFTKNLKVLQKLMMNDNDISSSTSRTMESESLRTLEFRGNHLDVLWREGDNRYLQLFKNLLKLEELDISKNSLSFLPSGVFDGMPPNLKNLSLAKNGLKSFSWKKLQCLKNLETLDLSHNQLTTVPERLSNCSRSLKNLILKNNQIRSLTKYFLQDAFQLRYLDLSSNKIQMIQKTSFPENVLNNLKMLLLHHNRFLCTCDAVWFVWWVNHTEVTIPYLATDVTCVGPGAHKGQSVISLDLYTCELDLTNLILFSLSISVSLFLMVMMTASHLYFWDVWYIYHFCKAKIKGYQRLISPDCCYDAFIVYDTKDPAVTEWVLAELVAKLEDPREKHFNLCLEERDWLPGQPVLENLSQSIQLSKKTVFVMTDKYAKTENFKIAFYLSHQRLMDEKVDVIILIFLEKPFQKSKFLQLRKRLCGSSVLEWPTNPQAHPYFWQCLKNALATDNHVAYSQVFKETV
Description: Antagonist activity at human TLR7 expressed in HEK-blue-HTLR7 cells assessed as inhibition of CL264-induced NFkappaB activation measured after overnight incubation by SEAP-based spectrophotometry assay.

Data set [2] in a line: Apparent permeability across apical to basolateral side in human Caco2 cells at 10 uM measured after 10 mins by LC-MS/MS analysis. The following applies: Caco-2. A general note: Caco-2 monolayers are a common model of the intestinal barrier.
Data set [3] can be described thus: Apparent permeability across basolateral to apical side in human Caco2 cells at 10 uM measured after 10 mins by LC-MS/MS analysis. The following applies: Caco-2.
The nature of data set [4]: Efflux ratio of apparent permeability across apical to basolateral over basolateral to apical side in human Caco2 cells measured after 10 mins by LC-MS/MS analysis. The following applies: Caco-2.
Data set [5] is described as follows: Stability in human plasma measured after 2 hrs by LC-MS/MS analysis.
Data set [6] is described as follows: Stability in mouse plasma measured after 2 hrs by LC-MS/MS analysis.
Data set [7] can be described thus: Metabolic stability in human liver microsomes assessed as half life incubated for 60 mins by LC-MS/MS analysis. (In general: Liver microsomes are a subcellular fraction often used to study metabolism.)
Data set [8] in a line: Metabolic stability in human liver microsomes assessed as compound remaining incubated for 60 mins by LC-MS/MS analysis.
A short description of data set [9]: Metabolic stability in human liver microsomes assessed as intrinsic clearance incubated for 60 mins by LC-MS/MS analysis.
The nature of data set [10]: Metabolic stability in mouse liver microsomes assessed as intrinsic clearance incubated for 60 mins by LC-MS/MS analysis.
A short description of data set [11]: metabolic stability in human liver microsomes assessed as hepatic extraction ratio incubated for 60 mins by LC-MS/MS analysis.
The nature of data set [12]: Metabolic stability in mouse liver microsomes assessed as hepatic extraction ratio incubated for 60 mins by LC-MS/MS analysis.
Data set [13] has as its target T2, Toll-like receptor 8 (Homo sapiens, UniProt Q9NR97).
T2 sequence (Q9NR97 whole entry): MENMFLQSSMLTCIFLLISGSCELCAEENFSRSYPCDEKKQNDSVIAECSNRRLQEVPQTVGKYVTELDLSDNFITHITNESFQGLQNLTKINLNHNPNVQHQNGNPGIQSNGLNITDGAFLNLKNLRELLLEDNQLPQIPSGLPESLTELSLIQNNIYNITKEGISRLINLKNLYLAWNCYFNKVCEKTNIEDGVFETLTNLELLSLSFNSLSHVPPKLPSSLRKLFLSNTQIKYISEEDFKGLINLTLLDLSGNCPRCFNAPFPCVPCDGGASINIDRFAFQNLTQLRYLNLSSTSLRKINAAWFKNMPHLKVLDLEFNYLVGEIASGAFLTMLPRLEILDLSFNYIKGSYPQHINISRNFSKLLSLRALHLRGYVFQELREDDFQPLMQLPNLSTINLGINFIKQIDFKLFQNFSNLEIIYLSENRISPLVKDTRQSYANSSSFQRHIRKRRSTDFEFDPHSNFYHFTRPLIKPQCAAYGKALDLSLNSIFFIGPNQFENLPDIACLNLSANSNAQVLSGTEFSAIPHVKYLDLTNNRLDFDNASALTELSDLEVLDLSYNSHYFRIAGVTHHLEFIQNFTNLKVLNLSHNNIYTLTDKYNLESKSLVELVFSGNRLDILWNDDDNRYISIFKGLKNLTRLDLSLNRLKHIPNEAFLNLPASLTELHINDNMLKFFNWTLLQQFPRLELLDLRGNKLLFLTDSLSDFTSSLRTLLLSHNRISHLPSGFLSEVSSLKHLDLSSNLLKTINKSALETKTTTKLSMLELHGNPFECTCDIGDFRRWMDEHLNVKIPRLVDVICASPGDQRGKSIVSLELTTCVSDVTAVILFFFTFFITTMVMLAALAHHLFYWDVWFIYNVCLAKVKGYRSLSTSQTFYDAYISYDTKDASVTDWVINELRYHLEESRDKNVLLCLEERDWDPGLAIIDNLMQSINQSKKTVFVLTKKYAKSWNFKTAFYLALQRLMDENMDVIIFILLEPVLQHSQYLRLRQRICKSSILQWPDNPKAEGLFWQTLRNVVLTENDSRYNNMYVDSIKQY
The data set can be described thus: Antagonist activity at human TLR8 expressed in […] cells assessed as inhibition of CL075-induced NFkappaB activation measured after overnight incubation by SEAP-based spectrophotometry assay. It counts as cell-based, HEK293.

The nature of data set [14]: physchem. The following applies: buffer, pH 7.4.
Description: Aqueous solubility of compound at pH 7.4 measured after 18 hrs by UV-spectrometry
The target of data set [15] is T3, Toll-like receptor 9 (Homo sapiens, UniProt Q9NR96).
T3 sequence (Q9NR96 whole entry): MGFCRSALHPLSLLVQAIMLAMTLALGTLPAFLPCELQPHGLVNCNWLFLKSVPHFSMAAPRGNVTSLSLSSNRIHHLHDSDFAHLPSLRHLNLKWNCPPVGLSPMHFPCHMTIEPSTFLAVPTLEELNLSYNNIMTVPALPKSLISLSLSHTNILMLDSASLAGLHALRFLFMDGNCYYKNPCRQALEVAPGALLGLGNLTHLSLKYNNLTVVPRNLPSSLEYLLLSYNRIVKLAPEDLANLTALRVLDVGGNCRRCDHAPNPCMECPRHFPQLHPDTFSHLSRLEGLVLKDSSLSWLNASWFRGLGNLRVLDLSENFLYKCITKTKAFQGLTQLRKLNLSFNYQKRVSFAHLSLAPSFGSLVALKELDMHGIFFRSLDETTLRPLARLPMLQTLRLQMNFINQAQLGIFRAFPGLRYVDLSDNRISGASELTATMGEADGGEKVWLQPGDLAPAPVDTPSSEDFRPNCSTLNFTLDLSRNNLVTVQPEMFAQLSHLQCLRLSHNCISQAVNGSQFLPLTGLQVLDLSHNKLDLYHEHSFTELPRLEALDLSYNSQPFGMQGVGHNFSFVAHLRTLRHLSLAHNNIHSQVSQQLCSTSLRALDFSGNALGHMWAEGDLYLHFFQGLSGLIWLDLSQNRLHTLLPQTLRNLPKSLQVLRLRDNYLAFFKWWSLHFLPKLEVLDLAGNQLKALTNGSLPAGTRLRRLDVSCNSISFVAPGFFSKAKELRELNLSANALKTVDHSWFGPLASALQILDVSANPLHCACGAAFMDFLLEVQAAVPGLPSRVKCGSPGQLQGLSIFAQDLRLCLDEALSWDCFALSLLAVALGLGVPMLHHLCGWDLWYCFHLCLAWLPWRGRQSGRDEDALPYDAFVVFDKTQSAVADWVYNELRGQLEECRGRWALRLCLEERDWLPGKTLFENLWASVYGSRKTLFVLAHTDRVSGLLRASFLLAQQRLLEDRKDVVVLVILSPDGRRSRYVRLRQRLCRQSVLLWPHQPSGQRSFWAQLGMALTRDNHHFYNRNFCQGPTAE
The data set can be described thus: Antagonist activity at human TLR9 expressed in […] cells assessed as inhibition of CpGB-induced NFkappaB activation measured after overnight incubation by SEAP-based spectrophotometry assay. The data set is classed as cell-based, HEK293.

In the case of `Fc1ccc(CNc2nc(N3CCN(C4CCCC4)CC3)c3ncn(CCCN4CCCC4)c3n2)cc1`, the half-maximal inhibitory concentration (IC50) in data set [1] is 13.6 µM; in [13] it was > 30 µM. Further, the Papp A→B at 10 min, 10 µM in [2] stood at 32.7 ×10⁻⁶ cm/s. Moreover, in [3], the Papp B→A at 10 min, 10 µM was found to be 62 ×10⁻⁶ cm/s. For the same compound, the efflux ratio at 10 min in data set [4] was 1.9. For the same compound, the results for the amount remaining at 2 h in data set [5] and in data set [6] were 75% and 20%, respectively. The half-life at 1 h in [7] was 0.298 h. The share remaining at 1 h in data set [8] is 2.9%. The intrinsic clearance (microsomal CLint) at 1 h in data set [9] worked out at 38.8 µL/min/mg; in data set [10], 23.1 µL/min/mg. The values for the hepatic extraction ratio at 1 h in [11] and in data set [12] were 0.642 and 0.385, respectively. Besides, the concentration in solution in [14] (solubility at 18 h) came to 28 µg/mL (≈ 55.3 µM).

For `CCN1CCN(c2nc(NCc3ccc(CN(C)C)cc3)nc3c2ncn3CCCN2CCCC2)CC1`, the figures for the half-maximal inhibitory concentration (IC50) in data set [15] and in [1] were 0.09 µM and 17.8 µM, respectively. For the same compound, in data set [2], the Papp A→B at 10 min, 10 µM came to 92.2 ×10⁻⁶ cm/s. Also, the Papp B→A at 10 min, 10 µM in data set [3] was 61.2 ×10⁻⁶ cm/s. In [4], the efflux ratio at 10 min was determined as 0.7. Also, the fraction remaining at 2 h in data set [5] amounted to 58%; in data set [6] it was 22%. Besides, the half-life at 1 h in [7] came out at 1.87 h. In [8], the amount remaining at 1 h worked out at 50.7%. Besides, the figures for the microsomal CLint at 1 h in data set [9] and in [10] were 7.1 µL/min/mg and 4.74 µL/min/mg, respectively. The hepatic extraction ratio at 1 h stood at 0.241 in [11] and 0.114 in [12]. Besides, the solubility at 18 h in data set [14] is 136 µg/mL (≈ 269 µM).
